Tests used:
[1] = system: neuroblastoma cells SK-N-SH; test: Total Aβ in supernatant of SK-N-SH cells by ELISA; type: cell-based; conditions: 24 hours
Procedure: Culture of neuroblastoma cells SK-N-SH and Aβ detection: SK-N-SH cells were cultured in DMEM, plated to 24 well plates and cultured for 24 hours, then PL201 (0, 30, 100, and 300 μM) was added. After co-incubation for 24 hours, the protein level of total Aβ in supernatant was detected by ELISA.
Culture of neuroblastoma cells SK-N-SH and Aβ detection: SK-N-SH cells were cultured in DMEM, plated to 24 well plates and cultured for 24 hours, then PL202 (0, 30, and 100 μM) was added. After co-incubation for 24 hours, protein level of total Aβ in supernatant was detected by ELISA.
Culture of neuroblastoma cells SK-N-SH and Aβ detection: SK-N-SH cells were cultured in DMEM, plated to 24 well plates and cultured for 24 hours, then PL171 (300 μM) was added. After co-incubation for 24 hours, protein level of total Aβ in supernatant was detected by ELISA.
Culture of neuroblastoma cells SK-N-SH and Aβ detection: SK-N-SH cells were cultured in DMEM, plated to 24 well plates and cultured for 24 hours, then PL172 (300 μM) was added. After co-incubation for 24 hours, protein level of total Aβ in supernatant was detected by ELISA.

mouse BV-2 cell line = test: Expression of inflammatory factors in LPS-treated BV-2 cells by QPCR; type: cell-based; conditions: PL202 30, 100, 300 μM, LPS 300 ng/ml, 24 hours
Procedure: Neuroinflammation in the brain of AD is one of the causes of cognitive decline. Microglial cells are the key cells that mediate neuroinflammation. In this example, the inventors have explored whether PL201 has the effect of inhibiting neuroinflammation by detecting the expressions of inflammatory factors on mouse BV-2 cell line.
BV-2 cells were cultured in DMEM, plated to 24 well plates and cultured for 24 hours, then PL201 (0, 10, 30, and 100 μM) and LPS (300 ng/ml) were added. After co-incubation for 24 hours, Trizol was used to extract RNA and the expressions of related inflammatory factors were detected by QPCR.
Mouse BV-2 cells were cultured in DMEM, plated to 24 well plates and cultured for 24 hours, then PL202 (0, 30, 100, and 300 μM) and LPS (300 ng/ml) were added. After co-incubation for 24 hours, Trizol was used to extract RNA and the expressions of related inflammatory factors were detected by QPCR.

Structure (SMILES)	Aβ production (total Aβ in supernatant) ([1]; 300 μM)	expression of inflammatory factor IL-1β (mouse BV-2 cell line)	expression of inflammatory factor iNOS (mouse BV-2 cell line)	Aβ production (total Aβ in supernatant) ([1]; 30, 100 μM)
COc1cc(/C=C/C(=O)NC2OC(C)C(O)C(O)C2O)ccc1O [PL171, (1-amino-β-L-rhamnopyranosyl) ferulamide]	significantly inhibited			
COc1cc(/C=C/C(=O)NC2OC(C)C(O)C(O)C2O)ccc1O [PL172, (1-amino-α-L-rhamnopyranosyl) ferulamide]	significantly inhibited			
COc1cc(/C=C/C(=O)OC2OC(C)C(O)C(O)C2O)ccc1O [PL202, (β-L-rhamnopyranosyl) ferulic acid ester]		significantly inhibited	significantly inhibited	significantly inhibited

Source: patent US11643428B2, “Therapeutic drug for neurodegenerative disease and application thereof” (SHANGHAI PHARMACEUTICALS HOLDING CO., LTD., priority 2018, dated 2023)
